# Results: patent US20230094952A1, “Method for Culturing Hematopoietic Stem Cells” (Sumitomo Pharma Co., Ltd., priority 2019, published 2023)
# Tested on: mouse long-term hematopoietic stem cells
# Experiment: Reproducibility and concentration dependence test: 1-week culture of sorted Hoxb5-tri-mCherry mouse long-term hematopoietic stem cells, flow cytometry
# Assay type: cell-based
# Conditions: day 7 of culture, n=2
# Procedure: Mice with insertion of a nucleic acid sequence containing three copies of a gene encoding the fluorescent protein mCherry to the C terminus of the mouse endogenous HoxB5 gene (Hoxb5-tri-mCherry) were used (triple-mCherry Hoxb5 knock-in mice; Non Patent Literature 1). The mice were housed under environmental conditions such that the room temperature and the humidity were 20 to 26° C. and 40 to 70%, respectively, under light for 12 hours and under dark for 12 hours (illumination: 8:00 a.m. to 8:00 p.m.).
# Bone marrow cells were collected from the tibia, femur, humerus, and pelvis in each side of each of the mice, and gathered in a mortar. A buffer obtained by adding thermally deactivated bovine serum (manufactured by Gibco) at a final concentration of 2% and EDTA at a final concentration of 2 mM to Ca^2+-free and Mg^2+-free PBS was added, and the resultant was broken with a pestle to obtain a cell population including hematopoietic stem cells.
# First, the thus-obtained cell population including hematopoietic stem cells was passed through strainers (meshes) of 100 μm, 70 μm, and 40 μm. The cell population was stained with an APC-binding anti-c-Kit (2B8) and fractionated with anti-APC magnetic beads and an LS column (both manufactured by Miltenyi Biotec) to obtain a cell population enriched with hematopoietic stem cells and progenitor cells.
# Subsequently, cells being c-Kit-positive were stained with antibodies for the following cell surface markers.
# Staining with the antibodies was performed at 4° C., and the cells were incubated for 30 minutes. For staining with the CD34 antibody, the cells were incubated for 90 minutes. Dead cell staining was performed with SYTOX Red Dead Cell Stain (manufactured by Life Technologies) in accordance with a method recommended by the manufacturer.
# Flow cytometry analysis and cell classification (cell sorting) were performed with a FACS Aria II cell sorter (manufactured by BD Biosciences), wherein Lineage-negative, c-Kit-positive, Sca-1-positive, Flk2-negative, CD34-negative or weakly CD34-positive, CD150-positive, and mCherry-positive fractions were regarded as long-term hematopoietic stem cells, and analysis was performed with the software FlowJo (manufactured by Tree Star, Inc.).
# The cells after classification were seeded in a 96-well plate. A cell culture medium was prepared by adding Stem Cell Factor (SCF, manufactured by PeproTech, Inc.) and Thrombopoietin (TPO, manufactured by PeproTech, Inc.) to StemSpan SFEM culture medium (manufactured by […] Technologies Inc.) and added in advance to a cell culture 96-well plate (manufactured by BD Biosciences) at 100 μL/well, and the cells sorted with the FACS Aria II cell sorter (BD Biosciences) were then seeded at 10 cells/well.
# […] Thereafter, the cells were cultured in a CO2 incubator under conditions of 37° C. and 5% CO2 for 1 week.
# After culture, the cells were stained with the antibodies for the surface markers c-Kit and Sca-1, Ter-119, B220, CD3, CD4, CD8a, Gr-1, and CD11b, and the ratio and post-growth cell count of a KLS fraction (c-Kit^+, Lin^−, Sca-1^+) or an mCherry-positive fraction given with use of a FACS Aria II cell sorter were analyzed by using FlowJo (BD Biosciences). The mCherry-positive fraction is a cell fraction expressing the Hoxb5 gene, and the KLS fraction is a cell fraction being c-Kit-positive, Lin-negative, and Sca-1-positive, and includes hematopoietic stem cells and multipotent progenitor cells as main components. […]
compound,measurement,setting,value
"C[C@H]1[C@@H](O)O[C@@H]2O[C@@]3(C)CC[C@H]4[C@H](C)CC[C@@H]1[C@@]24OO3 [Example 1-29, artenimol, reference compound]",KLS-positive rate,"Table 3, compound 0.1 μM",8.92%
same,Viable cell count,"Table 3, compound 0.1 μM",1563 cell
same,mCherry-positive rate,"Table 3, compound 0.1 μM",16.9%
same,KLS-positive rate,"Table 3, compound 0.3 μM",18%
same,Viable cell count,"Table 3, compound 0.3 μM",2268 cell
same,mCherry-positive rate,"Table 3, compound 0.3 μM",42.4%
same,KLS-positive rate,"Table 3, compound 1 μM",20.05%
same,Viable cell count,"Table 3, compound 1 μM",666.5 cell
same,mCherry-positive rate,"Table 3, compound 1 μM",84.8%
same,KLS-positive rate,"Table 3, compound 3 μM",0%
same,Viable cell count,"Table 3, compound 3 μM",0 cell
same,mCherry-positive rate,"Table 3, compound 3 μM",0%
same,KLS-positive rate,"Table 3, compound 10 μM",0%
same,Viable cell count,"Table 3, compound 10 μM",0 cell
same,mCherry-positive rate,"Table 3, compound 10 μM",0%
same,KLS-positive rate,"Table 4, compound 0.1 μM",19.4%
same,Viable cell count,"Table 4, compound 0.1 μM",469.5 cell
same,mCherry-positive rate,"Table 4, compound 0.1 μM",13.3%
same,KLS-positive rate,"Table 4, compound 0.3 μM",13.7%
same,Viable cell count,"Table 4, compound 0.3 μM",215.0 cell
same,mCherry-positive rate,"Table 4, compound 0.3 μM",6.0%
same,KLS-positive rate,"Table 4, compound 1 μM",11.3%
same,Viable cell count,"Table 4, compound 1 μM",248.0 cell
same,mCherry-positive rate,"Table 4, compound 1 μM",3.9%
same,KLS-positive rate,"Table 4, compound 3 μM",80.0%
same,Viable cell count,"Table 4, compound 3 μM",4.5 cell
same,mCherry-positive rate,"Table 4, compound 3 μM",100.0%
same,KLS-positive rate,"Table 4, compound 10 μM",50.0%
same,Viable cell count,"Table 4, compound 10 μM",0.5 cell
same,mCherry-positive rate,"Table 4, compound 10 μM",50.0%
"CO[C@@H]1O[C@@H]2O[C@@]3(C)CC[C@H]4[C@H](C)CC[C@@H]([C@H]1C)[C@@]24OO3 [Example 1-35, (3R,5aS,6R,8aS,9R,10R,12R,12aR)-10-Methoxy-3,6,9-trimethyldecahydro-12H-3,12-epoxypyrano[4,3-j][1,2]benzodioxepine]",KLS-positive rate,"Table 4, compound 0.1 μM",13.8%
same,Viable cell count,"Table 4, compound 0.1 μM",763.5 cell
same,mCherry-positive rate,"Table 4, compound 0.1 μM",3.0%
same,KLS-positive rate,"Table 4, compound 0.3 μM",19.9%
same,Viable cell count,"Table 4, compound 0.3 μM",544.5 cell
same,mCherry-positive rate,"Table 4, compound 0.3 μM",48.5%
same,KLS-positive rate,"Table 4, compound 1 μM",17.9%
same,Viable cell count,"Table 4, compound 1 μM",554.0 cell
same,mCherry-positive rate,"Table 4, compound 1 μM",74.0%
same,KLS-positive rate,"Table 4, compound 3 μM",48.7%
same,Viable cell count,"Table 4, compound 3 μM",104.5 cell
same,mCherry-positive rate,"Table 4, compound 3 μM",92.2%
same,KLS-positive rate,"Table 4, compound 10 μM",46.7%
same,Viable cell count,"Table 4, compound 10 μM",121.5 cell
same,mCherry-positive rate,"Table 4, compound 10 μM",99.6%
"CC1=CO[C@@H]2O[C@@]3(C)CC[C@H]4[C@H](C)CC[C@@H]1[C@@]24OO3 [Example 1-28, (3R,5aS,6R,8aS,12R,12aR)-3,6,9-trimethyl-3,4,5,5a,6,7,8,8a-octahydro-12H-3,12-epoxypyrano[4,3-j][1,2]benzodioxepine]",KLS-positive rate,"Table 4, compound 0.1 μM",21.5%
same,Viable cell count,"Table 4, compound 0.1 μM",275.5 cell
same,mCherry-positive rate,"Table 4, compound 0.1 μM",12.9%
same,KLS-positive rate,"Table 4, compound 0.3 μM",13.5%
same,Viable cell count,"Table 4, compound 0.3 μM",305.0 cell
same,mCherry-positive rate,"Table 4, compound 0.3 μM",15.0%
same,KLS-positive rate,"Table 4, compound 1 μM",10.5%
same,Viable cell count,"Table 4, compound 1 μM",522.0 cell
same,mCherry-positive rate,"Table 4, compound 1 μM",35.5%
same,KLS-positive rate,"Table 4, compound 3 μM",16.5%
same,Viable cell count,"Table 4, compound 3 μM",283.0 cell
same,mCherry-positive rate,"Table 4, compound 3 μM",80.3%
same,KLS-positive rate,"Table 4, compound 10 μM",41.2%
same,Viable cell count,"Table 4, compound 10 μM",138.0 cell
same,mCherry-positive rate,"Table 4, compound 10 μM",96.4%
"C[C@H]1[C@@H](F)O[C@@H]2O[C@@]3(C)CC[C@H]4[C@H](C)CC[C@@H]1[C@@]24OO3 [Example 1-1, (3R,5aS,6R,8aS,9R,10R,12S,12aR)-10-Fluoro-3,6,9-trimethyldecahydro-12H-3,12-epoxypyrano[4,3-j][1,2]benzodioxepine]",KLS-positive rate,"Table 4, compound 0.1 μM",46.5%
same,Viable cell count,"Table 4, compound 0.1 μM",477.0 cell
same,mCherry-positive rate,"Table 4, compound 0.1 μM",0.5%
same,KLS-positive rate,"Table 4, compound 0.3 μM",0.0%
same,Viable cell count,"Table 4, compound 0.3 μM",0.0 cell
same,mCherry-positive rate,"Table 4, compound 0.3 μM",0.0%
same,KLS-positive rate,"Table 4, compound 1 μM",0.0%
same,Viable cell count,"Table 4, compound 1 μM",0.5 cell
same,mCherry-positive rate,"Table 4, compound 1 μM",50.0%
same,KLS-positive rate,"Table 4, compound 3 μM",0.0%
same,Viable cell count,"Table 4, compound 3 μM",0.0 cell
same,mCherry-positive rate,"Table 4, compound 3 μM",0.0%
same,KLS-positive rate,"Table 4, compound 10 μM",0.0%
same,Viable cell count,"Table 4, compound 10 μM",0.0 cell
same,mCherry-positive rate,"Table 4, compound 10 μM",0.0%
"C[C@H]1[C@H](S(C)(=O)=O)O[C@@H]2O[C@@]3(C)CC[C@H]4[C@H](C)CC[C@@H]1[C@@]24OO3 [Example 1-5, (3R,5aS,6R,8aS,9R,10S,12S,12aR)-10-(Methanesulfonyl)-3,6,9-trimethyldecahydro-12H-3,12-epoxypyrano[4,3-j][1,2]benzodioxepine]",KLS-positive rate,"Table 4, compound 0.1 μM",18.2%
same,Viable cell count,"Table 4, compound 0.1 μM",443.5 cell
same,mCherry-positive rate,"Table 4, compound 0.1 μM",11.5%
same,KLS-positive rate,"Table 4, compound 0.3 μM",41.7%
same,Viable cell count,"Table 4, compound 0.3 μM",221.5 cell
same,mCherry-positive rate,"Table 4, compound 0.3 μM",8.5%
same,KLS-positive rate,"Table 4, compound 1 μM",20.0%
same,Viable cell count,"Table 4, compound 1 μM",308.0 cell
same,mCherry-positive rate,"Table 4, compound 1 μM",4.5%
same,KLS-positive rate,"Table 4, compound 3 μM",30.8%
same,Viable cell count,"Table 4, compound 3 μM",184.0 cell
same,mCherry-positive rate,"Table 4, compound 3 μM",41.5%
same,KLS-positive rate,"Table 4, compound 10 μM",0.0%
same,Viable cell count,"Table 4, compound 10 μM",1.5 cell
same,mCherry-positive rate,"Table 4, compound 10 μM",0.0%
"CC(=O)O[C@@H]1O[C@@H]2O[C@@]3(C)CC[C@H]4[C@H](C)CC[C@@H]([C@H]1C)[C@@]24OO3 [Example 1-14, (3R,5aS,6R,8aS,9R,10S,12R,12aR)-3,6,9-Trimethyldecahydro-12H-3,12-epoxypyrano[4,3-j][1,2]benzodioxepin-10-yl acetate]",KLS-positive rate,"Table 4, compound 0.1 μM",20.6%
same,Viable cell count,"Table 4, compound 0.1 μM",497.5 cell
same,mCherry-positive rate,"Table 4, compound 0.1 μM",0.2%
same,KLS-positive rate,"Table 4, compound 0.3 μM",30.1%
same,Viable cell count,"Table 4, compound 0.3 μM",340.0 cell
same,mCherry-positive rate,"Table 4, compound 0.3 μM",9.0%
same,KLS-positive rate,"Table 4, compound 1 μM",47.3%
same,Viable cell count,"Table 4, compound 1 μM",119.0 cell
same,mCherry-positive rate,"Table 4, compound 1 μM",22.1%
same,KLS-positive rate,"Table 4, compound 3 μM",50.0%
same,Viable cell count,"Table 4, compound 3 μM",1.0 cell
same,mCherry-positive rate,"Table 4, compound 3 μM",100.0%
same,KLS-positive rate,"Table 4, compound 10 μM",0.0%
same,Viable cell count,"Table 4, compound 10 μM",0.5 cell
same,mCherry-positive rate,"Table 4, compound 10 μM",0.0%
"C[C@H]1[C@@H](C)O[C@@H]2O[C@@]3(C)CC[C@H]4[C@H](C)CC[C@@H]1[C@@]24OO3 [Example 1-6, (3R,5aS,6R,8aS,9R,10R,12R,12aR)-3,6,9,10-Tetramethyldecahydro-12H-3,12-epoxypyrano[4,3-j][1,2]benzodioxepine]",KLS-positive rate,"Table 4, compound 0.1 μM",34.8%
same,Viable cell count,"Table 4, compound 0.1 μM",147.0 cell
same,mCherry-positive rate,"Table 4, compound 0.1 μM",2.0%
same,KLS-positive rate,"Table 4, compound 0.3 μM",20.9%
same,Viable cell count,"Table 4, compound 0.3 μM",190.0 cell
same,mCherry-positive rate,"Table 4, compound 0.3 μM",15.6%
same,KLS-positive rate,"Table 4, compound 1 μM",19.8%
same,Viable cell count,"Table 4, compound 1 μM",183.5 cell
same,mCherry-positive rate,"Table 4, compound 1 μM",24.4%
same,KLS-positive rate,"Table 4, compound 3 μM",17.6%
same,Viable cell count,"Table 4, compound 3 μM",215.5 cell
same,mCherry-positive rate,"Table 4, compound 3 μM",80.8%
same,KLS-positive rate,"Table 4, compound 10 μM",47.8%
same,Viable cell count,"Table 4, compound 10 μM",37.5 cell
same,mCherry-positive rate,"Table 4, compound 10 μM",98.4%
"C[C@H]1[C@@H](c2ccccc2)O[C@@H]2O[C@@]3(C)CC[C@H]4[C@H](C)CC[C@@H]1[C@@]24OO3 [Example 1-2, (3R,5aS,6R,8aS,9R,10S,12R,12aR)-3,6,9-Trimethyl-10-phenyldecahydro-12H-3,12-epoxypyrano[4,3-j][1,2]benzodioxepine]",KLS-positive rate,"Table 4, compound 0.1 μM",16.0%
same,Viable cell count,"Table 4, compound 0.1 μM",340.5 cell
same,mCherry-positive rate,"Table 4, compound 0.1 μM",59.9%
same,KLS-positive rate,"Table 4, compound 0.3 μM",50.0%
same,Viable cell count,"Table 4, compound 0.3 μM",0.5 cell
same,mCherry-positive rate,"Table 4, compound 0.3 μM",50.0%
same,KLS-positive rate,"Table 4, compound 1 μM",0.0%
same,Viable cell count,"Table 4, compound 1 μM",0.5 cell
same,mCherry-positive rate,"Table 4, compound 1 μM",0.0%
same,KLS-positive rate,"Table 4, compound 3 μM",0.0%
same,Viable cell count,"Table 4, compound 3 μM",0.5 cell
same,mCherry-positive rate,"Table 4, compound 3 μM",50.0%
same,KLS-positive rate,"Table 4, compound 10 μM",0.0%
same,Viable cell count,"Table 4, compound 10 μM",0.0 cell
same,mCherry-positive rate,"Table 4, compound 10 μM",0.0%
